Experimental data taken from patent US12599136B2, “Substituted isophthalic acid diamides and their use as herbicides” (Bayer Aktiengesellschaft, priority 2020, dated 2026).

Assays:
Type in all cases: in vivo
[1] = system: Setaria viridis; assay: Post-emergence herbicidal action against SETVI; details: for Post-emergence action against SETVI in %: visual assessment about 3 weeks after treatment
How it was run: (§1)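 Post-emergence greenhouse test; one-leaf stage, 2–3 wk post-sowing, sandy loam. Foliar spray of WP/EC in water, 600–800 l/ha, +0.2% wetting agent. Visual % action at ~3 wk vs untreated (100% = plants dead).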

[2] = system: Hordeum murinum; assay: Pre-emergence herbicidal action against HORMU; details: visual score after 3 weeks vs untreated controls
How it was run: (§2)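 Herbicidal effect was assessed 3 weeks after treatment by visual comparison with untreated controls, 100% denoting dead plants. Aqueous WP or EC preparations had been applied at 600 to 800 l/ha with 0.2% wetting agent to the soil covering freshly sown seeds.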

[3] = system: Cyperus esculentus; assay: Post-emergence herbicidal action against CYPES; details: visual assessment about 3 weeks after treatment
How it was run: as §1

[4] = system: Abutilon theophrasti; assay: Pre-emergence herbicidal action against ABUTH; details: for Pre-emergence action against ABUTH: visual score after 3 weeks vs untreated controls
How it was run: as §2

[5] = system: Veronica persica; assay: Pre-emergence herbicidal action against VERPE
How it was run: as §2

[6] = system: Setaria viridis; assay: Pre-emergence herbicidal action against SETVI; details: for Herbicidal action against SETVI: comparative experiment
How it was run: as §2

[7] = system: Alopecurus myosuroides; assay: Pre-emergence herbicidal action against ALOMY; details: for Pre-emergence action against ALOMY: visual score after 3 weeks vs untreated controls
How it was run: as §2

[8] = system: Matricaria inodora; assay: Post-emergence herbicidal action against MATIN; details: for Post-emergence action against MATIN in %: visual assessment about 3 weeks after treatment
How it was run: as §1

[9] = system: Pharbitis purpurea; assay: Post-emergence herbicidal action against PHBPU; details: 80 g/ha, visual assessment about 3 weeks after treatment
How it was run: as §1

[10] = system: Viola tricolor; assay: Pre-emergence herbicidal action against VIOTR; details: 320 g/ha
How it was run: as §2

[11] = system: Cyperus esculentus; assay: Pre-emergence herbicidal action against CYPES; details: for Pre-emergence action against CYPES: visual score after 3 weeks vs untreated controls; for Herbicidal action against CYPES: comparative experiment, pre-emergence
How it was run: as §2

[12] = system: Amaranthus retroflexus; assay: Post-emergence herbicidal action against AMARE; details: visual assessment about 3 weeks after treatment
How it was run: as §1

[13] = system: Echinochloa crus-galli; assay: Pre-emergence herbicidal action against ECHCG; details: for Pre-emergence action against ECHCG: visual score after 3 weeks vs untreated controls; for Herbicidal action against ECHCG: comparative experiment, pre-emergence
How it was run: as §2

[14] = system: Lolium rigidum; assay: Post-emergence herbicidal action against LOLRI
Protocol: (§3) Seeds of monocotyledonous and dicotyledonous weed and crop plants are laid out in sandy loam soil in wood-fiber pots, covered with soil and cultivated in a greenhouse under good growth conditions. 2 to 3 weeks after sowing, the test plants are treated at the one-leaf stage. The compounds of the invention, formulated in the form of wettable powders (WP) or as emulsion concentrates (EC), are then sprayed onto the green parts of the plants in the form of an aqueous suspension or emulsion at a water application rate equivalent to 600 to 800 l/ha, with addition of 0.2% wetting agent. After the test plants have been left to stand in the greenhouse under optimal growth conditions for about 3 weeks, the action of the preparations is assessed visually in comparison to untreated controls (herbicidal action in percent (%): 100% activity=the plants have died, 0% activity=like control plants). […] The tables below illustrate, in an illustrative manner, the post-emergence herbicidal action of the compounds of the invention, the herbicidal activity being stated in percent.

[15] = system: Alopecurus myosuroides; assay: Post-emergence herbicidal action against ALOMY
How it was run: as §1

[16] = system: Stellaria media; assay: Post-emergence herbicidal action against STEME; details: for Post-emergence action against STEME in %: visual assessment about 3 weeks after treatment
How it was run: as §1

[17] = system: Matricaria inodora; assay: Pre-emergence herbicidal action against MATIN; details: for Pre-emergence action against MATIN: visual score after 3 weeks vs untreated controls
How it was run: as §2

[18] = system: Polygonum convolvulus; assay: Pre-emergence herbicidal action against POLCO; details: 320 g/ha
How it was run: as §2

[19] = system: Avena fatua; assay: Pre-emergence herbicidal action against AVEFA; details: for Pre-emergence action against AVEFA: visual score after 3 weeks vs untreated controls
How it was run: as §2

[20] = system: Avena fatua; assay: Post-emergence herbicidal action against AVEFA; details: for Post-emergence action against AVEFA in %: visual assessment about 3 weeks after treatment
How it was run: as §1

[21] = system: Amaranthus retroflexus; assay: Pre-emergence herbicidal action against AMARE; details: for Pre-emergence action against AMARE: visual score after 3 weeks vs untreated controls; for Herbicidal action against AMARE: comparative experiment, pre-emergence
How it was run: as §2

[22] = system: Hordeum murinum; assay: Post-emergence herbicidal action against HORMU
Protocol: as §3

[23] = system: Echinochloa crus-galli; assay: Post-emergence herbicidal action against ECHCG; details: visual assessment about 3 weeks after treatment
How it was run: as §1

[24] = system: Viola tricolor; assay: Post-emergence herbicidal action against VIOTR
How it was run: as §1

[25] = system: Stellaria media; assay: Pre-emergence herbicidal action against STEME
How it was run: as §2

[26] = system: Abutilon theophrasti; assay: Post-emergence herbicidal action against ABUTH
How it was run: as §1

[27] = system: Lolium rigidum; assay: Pre-emergence herbicidal action against LOLRI
How it was run: as §2

[28] = system: Polygonum convolvulus; assay: Post-emergence herbicidal action against POLCO; details: 80 g/ha, visual assessment about 3 weeks after treatment
How it was run: as §1

[29] = system: Veronica persica; assay: Post-emergence herbicidal action against VERPE; details: visual assessment about 3 weeks after treatment
How it was run: as §1

[30] = comparative experiment, 5 g a.i./ha
[31] = comparative experiment, pre-emergence, 80 g a.i./ha
[32] = comparative experiment, pre-emergence, 20 g a.i./ha

CN(C)C(=O)c1c(C(F)(F)F)ccc(C(=O)Nc2nnnn2C)c1Cl [Example 1-123]
Post-emergence action against SETVI in % ([1]; 5 g/ha): 100%
Post-emergence action against SETVI in % ([1]; 20 g/ha): 100%
Post-emergence action against SETVI in % ([1]; 80 g/ha): 100%
Herbicidal action against SETVI [1, 30]: 100
Pre-emergence action against HORMU ([2]; 80 g/ha): 90%
Pre-emergence action against HORMU ([2]; 320 g/ha): 100%
Post-emergence action against CYPES in % ([3]; 5 g/ha): 80%
Post-emergence action against CYPES in % ([3]; 20 g/ha): 90%
Post-emergence action against CYPES in % ([3]; 80 g/ha): 90%
Pre-emergence action against ABUTH ([4]; 20 g/ha): 80%
Pre-emergence action against ABUTH ([4]; 80 g/ha): 100%
Pre-emergence action against ABUTH ([4]; Dosage column 320 g/ha (heading prints 3200 g/ha)): 100%
Herbicidal action against ABUTH [4, 31]: 100
Pre-emergence action against VERPE ([5]; 80 g/ha): 80%
Pre-emergence action against VERPE ([5]; 320 g/ha): 90%
Pre-emergence action against SETVI ([6]; 20 g/ha): 90%
Pre-emergence action against SETVI ([6]; 80 g/ha): 100%
Pre-emergence action against SETVI ([6]; 320 g/ha): 100%
Herbicidal action against SETVI ([6]; 20 g a.i./ha): 90
Herbicidal action against SETVI ([6]; 80 g a.i./ha): 100
Pre-emergence action against ALOMY ([7]; 80 g/ha): 80%
Pre-emergence action against ALOMY ([7]; 320 g/ha): 100%
Herbicidal action against ALOMY [7, 32]: 70
Post-emergence action against MATIN in % ([8]; 5 g/ha): 80%
Post-emergence action against MATIN in % ([8]; 20 g/ha): 80%
Post-emergence action against MATIN in % ([8]; 80 g/ha): 100%
Herbicidal action against MATIN [8, 30]: 80
Post-emergence action against PHBPU in % [9]: 100%
Pre-emergence action against VIOTR [10]: 90%
Pre-emergence action against CYPES ([11]; 20 g/ha): 80%
Pre-emergence action against CYPES ([11]; 80 g/ha): 100%
Pre-emergence action against CYPES ([11]; 320 g/ha): 100%
Herbicidal action against CYPES ([11]; 20 g a.i./ha): 80
Herbicidal action against CYPES ([11]; 80 g a.i./ha): 100
Post-emergence action against AMARE in % ([12]; 5 g/ha): 100%
Post-emergence action against AMARE in % ([12]; 20 g/ha): 100%
Post-emergence action against AMARE in % ([12]; 80 g/ha): 100%
Pre-emergence action against ECHCG ([13]; 20 g/ha): 90%
Pre-emergence action against ECHCG ([13]; 80 g/ha): 100%
Pre-emergence action against ECHCG ([13]; 320 g/ha): 100%
Herbicidal action against ECHCG ([13]; 20 g a.i./ha): 90
Herbicidal action against ECHCG ([13]; 80 g a.i./ha): 100
Post-emergence action against LOLRI in % ([14]; 20 g/ha): 80%
Post-emergence action against LOLRI in % ([14]; 80 g/ha): 90%
Post-emergence action against ALOMY ([15]; 5 g/ha): 100%
Post-emergence action against ALOMY ([15]; 20 g/ha): 100%
Post-emergence action against ALOMY ([15]; 80 g/ha): 100%
Herbicidal action against ALOMY [15, 30]: 100
Post-emergence action against STEME in % ([16]; 5 g/ha): 100%
Post-emergence action against STEME in % ([16]; 20 g/ha): 100%
Post-emergence action against STEME in % ([16]; 80 g/ha): 100%
Herbicidal action against STEME [16, 30]: 100
Pre-emergence action against MATIN ([17]; 80 g/ha): 90%
Pre-emergence action against MATIN ([17]; 320 g/ha): 90%
Herbicidal action against MATIN [17, 32]: 70
Pre-emergence action against POLCO [18]: 90%
Pre-emergence action against AVEFA ([19]; 80 g/ha): 90%
Pre-emergence action against AVEFA ([19]; 320 g/ha): 100%
Herbicidal action against AVEFA [19, 31]: 90
Post-emergence action against AVEFA in % ([20]; 5 g/ha): 80%
Post-emergence action against AVEFA in % ([20]; 20 g/ha): 90%
Post-emergence action against AVEFA in % ([20]; 80 g/ha): 100%
Herbicidal action against AVEFA [20, 30]: 80
Pre-emergence action against AMARE ([21]; 20 g/ha): 90%
Pre-emergence action against AMARE ([21]; 80 g/ha): 100%
Pre-emergence action against AMARE ([21]; 320 g/ha): 100%
Herbicidal action against AMARE ([21]; 20 g a.i./ha): 90
Herbicidal action against AMARE ([21]; 80 g a.i./ha): 100
Post-emergence action against HORMU in % ([22]; 5 g/ha): 80%
Post-emergence action against HORMU in % ([22]; 20 g/ha): 80%
Post-emergence action against HORMU in % ([22]; 80 g/ha): 100%
Post-emergence action against ECHCG in % ([23]; 5 g/ha): 100%
Post-emergence action against ECHCG in % ([23]; 20 g/ha): 100%
Post-emergence action against ECHCG in % ([23]; 80 g/ha): 100%
Post-emergence action against VIOTR in % ([24]; 5 g/ha): 80%
Post-emergence action against VIOTR in % ([24]; 20 g/ha): 100%
Post-emergence action against VIOTR in % ([24]; 80 g/ha): 100%
Pre-emergence action against STEME ([25]; 20 g/ha): 90%
Pre-emergence action against STEME ([25]; 80 g/ha): 90%
Pre-emergence action against STEME ([25]; 320 g/ha): 90%
Post-emergence action against ABUTH ([26]; 5 g/ha): 100%
Post-emergence action against ABUTH ([26]; 20 g/ha): 100%
Post-emergence action against ABUTH ([26]; 80 g/ha): 100%
Herbicidal action against ABUTH [26, 30]: 100
Pre-emergence action against LOLRI ([27]; 80 g/ha): 80%
Pre-emergence action against LOLRI ([27]; 320 g/ha): 100%
Post-emergence action against POLCO in % [28]: 90%
Post-emergence action against VERPE in % ([29]; 5 g/ha): 80%
Post-emergence action against VERPE in % ([29]; 20 g/ha): 80%
Post-emergence action against VERPE in % ([29]; 80 g/ha): 100%
